US7335665B2, “Spirocyclic piperidines as MCH1 antagonists and uses thereof” (H - Lundbeck A/S, priority 2003, dated 2008)
pKi: −log10 of the molar value.

Each compound was assayed against T1, rat MCH1 receptor (Rattus norvegicus, UniProt P97639) (assay: Radioligand binding assay at cloned rat MCH1 receptor ([3H]Compound A displacement)). Settings: KI, cloned rat MCH1, membranes of transfected Peakr293 cells, 0.08 nM [3H]Compound A, 25° C., 90 minutes.
T1 construct: expressed in transfected cells; host or cells: Human embryonic kidney Peak rapid 293 cells (Peakr293), transient, calcium phosphate; membranes
Protocol: For binding assays, pellets of transfected cells are suspended in ice-cold buffer (20 mM Tris.HCl, 5 mM EDTA, pH 7.4) and homogenized by sonication for 7 sec. The cell lysates are centrifuged at 200×g for 5 min at 4° C. The supernatants are then centrifuged at 40,000×g for 20 min at 4° C. The resulting pellets are washed once in the homogenization buffer and suspended in binding buffer (see methods for radioligand binding). Protein concentrations are determined by the method of Bradford (1976) using bovine serum albumin as the standard. Binding assays are usually performed immediately, however it is possible to prepare membranes in batch and store frozen in liquid nitrogen for future use.
Radioligand binding assays for the rat MCH1 receptor were carried out using plasmid pcDNA3.1-rMCH1-f (ATCC Patent Deposit Designation No. PTA-3505). Plasmid pcDNA3.1-rMCH1-f comprises the regulatory elements necessary for expression of DNA in a mammalian cell operatively linked to DNA encoding the rat MCH1 receptor so as to permit expression thereof. Plasmid pcDNA3.1-rMCH1-f was deposited on Jul. 5, 2001, with the American Type Culture Collection (ATCC), 12301 Parklawn Drive, Rockville, Md. 20852, U.S.A. under the provisions of the Budapest Treaty for the International Recognition of the Deposit of Microorganisms for the Purposes of Patent Procedure and was accorded ATCC Patent Deposit Designation No. PTA-3505.
Human embryonic kidney Peak rapid 293 cells (Peakr293 cells) were transiently transfected with DNA encoding the MCH1 receptor utilizing the calcium phosphate method and cell membranes were prepared as described above. Binding experiments with membranes from Peakr293 cells transfected with the rat MCH1 receptor were performed with 0.08 nM [^3H]Compound A (custom labeled by Amersham) (the synthesis of Compound A is described in detail below) using an incubation buffer consisting of 50 mM Tris pH 7.4, 10 mM MgCl2, 0.16 mM PMSF, 1 mM 1,10 phenantroline and 0.2% BSA. Binding was performed at 25° C. for 90 minutes. Incubations were terminated by rapid vacuum filtration over GF/C glass fiber filters, presoaked in 5% PEI using […] Tris pH 7.4 as wash buffer. In all experiments, nonspecific binding is defined using […] Compound A.
The compounds described above were assayed using cloned rat MCH1.

T1 sequence (P97639 whole entry): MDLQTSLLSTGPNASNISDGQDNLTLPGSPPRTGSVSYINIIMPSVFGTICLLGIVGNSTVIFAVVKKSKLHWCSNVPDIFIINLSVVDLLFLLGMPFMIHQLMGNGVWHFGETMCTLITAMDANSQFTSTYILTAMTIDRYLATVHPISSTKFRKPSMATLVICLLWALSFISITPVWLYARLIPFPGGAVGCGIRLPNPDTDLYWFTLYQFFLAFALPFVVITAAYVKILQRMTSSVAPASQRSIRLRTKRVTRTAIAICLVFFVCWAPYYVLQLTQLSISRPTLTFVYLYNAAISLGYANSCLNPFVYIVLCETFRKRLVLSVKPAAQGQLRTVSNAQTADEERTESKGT

Structure (SMILES) | pKi
O=C(NCCCN1CCC2(CC1)OCc1ccccc12)C(c1ccccc1)c1ccccc1 [Example 76, 2,2-DIPHENYL-N-(3-(SPIRO[1,3-DIHYDROISOBENZOFURAN-1,4′-PIPERIDINE]-10-YL)PROPYL)ACETAMIDE] | 7.69
O=C(NCCCN1CCC2(CC1)OCc1ccccc12)C(c1ccccc1)(c1ccccc1)c1ccccc1 [Example 77, 2,2,2-TRIPHENYL-N-(3-(SPIRO[1,3-DIHYDROISOBENZOFURAN-1,4′-PIPERIDINE]-10-YL)PROPYL)ACETAMIDE] | 6.82
O=C(NCCCN1CCC2(CC1)OCc1ccccc12)C1(c2ccc(F)cc2)CCCC1 [Example 79, [(4-FLUOROPHENYL)CYCLOPENTYL]-N-(3-(SPIRO[1,3-DIHYDROISOBENZOFURAN-1,4′-PIPERIDINE]-10-YL)PROPYL)CARBOXAMIDE] | 6.29
O=C(NCCCN1CCC2(CC1)OCc1ccccc12)C1(c2ccc(F)cc2)CCCCC1 [Example 80, [(4-FLUOROPHENYL)CYCLOHEXYL]-N-(3-(SPIRO[1,3-DIHYDROISOBENZOFURAN-1,4′-PIPERIDINE]-10-YL)PROPYL)CARBOXAMIDE] | 6.76
CC(C(=O)NCCCN1CCC2(CC1)OCc1ccccc12)c1ccc(F)cc1 (stereo not drawn) [Example 82, 2-(4-FLUOROPHENYL)-N-(3-(SPIRO[1,3-DIHYDROISOBENZOFURAN-1,4′-PIPERIDINE]-10-YL) PROPYL) PROPANAMIDE] | 6.17
O=C(NCCCN1CCC2(CC1)OCc1ccccc12)C(c1ccc(F)cc1)c1ccc(F)cc1 [Example 84, 2,2-BIS(4-FLUOROPHENYL)-N-(3-(SPIRO[1,3-DIHYDROISOBENZOFURAN-1,4′-PIPERIDINE]-10-YL)PROPYL)ACETAMIDE] | 8.31
O=C(Cc1ccc(F)c(F)c1)NCCCN1CCC2(CC1)OCc1ccccc12 [Example 86, 2-(3,4-DIFLUOROPHENYL)-N-(3-(SPIRO[1,3-DIHYDROISOBENZOFURAN-1,4′-PIPERIDINE]-10-YL)PROPYL)ACETAMIDE] | 6.42
O=C(NCCCN1CCC2(CC1)OCc1ccccc12)C1(c2ccc(Cl)cc2)CCC1 [Example 87, [(4-CHLOROPHENYL)CYCLOBUTYL]-N-(3-(SPIRO[1,3-DIHYDROISOBENZOFURAN-1,4′-PIPERIDINE]-10-YL)PROPYL)CARBOXAMIDE] | 6.38
CC(C(=O)NCCCN1CCC2(CC1)OCc1ccccc12)(c1ccccc1)c1ccccc1 [Example 88, 2,2-DIPHENYL-N-(3-(SPIRO[1,3-DIHYDROISOBENZOFURAN-1,4′-PIPERIDINE]-10-YL)PROPYL)PROPANAMIDE] | 6.84
O=C1OC2(CCN(CCCNC(=O)C(c3ccc(Cl)cc3)c3ccc(Cl)cc3)CC2)c2ccccc21 [Example 94, 2,2-BIS(4-CHLOROPHENYL)-N-[3-(1-OXOSPIRO[3-HYDROISOBENZOFURAN-3,4′-PIPERIDINE]-10-YL)PROPYL]ACETAMIDE] | 6.22
Cc1ccc(C(C(=O)NCCCN2CCC3(CC2)C(=O)CCc2ccccc23)c2ccc(C)cc2)cc1 [Example 97, 2,2-BIS(4-METHYL)PHENYL)-N-[3-(2-OXOSPIRO[1,3,4-TRIHYDRONAPHTHALENE-1,4′-PIPERIDINE]-11-YL)PROPYL]ACETAMIDE] | 6.37
O=C(NCCCN1CCC2(CC1)OCc1cc(F)c(F)c(F)c12)C(c1ccccc1)c1ccccc1 [Example 99, 2,2-DIPHENYL-N-[3-(4,5,6-TRIFLUOROSPIRO[1,3-DIHYDROISOBENZOFURAN-3,4′-PIPERIDINE]-10-YL)PROPYL]ACETAMIDE] | 7.94

Same assay, conditions: cloned rat MCH1, membranes of transfected Peakr293 cells, 0.08 nM [3H]Compound A, 25° C., 90 minutes; read-out: KI

Structure (SMILES) | pKi
O=C(NCCCN1CCC2(C=Cc3ccccc32)CC1)C1(c2ccc(F)cc2)CCCCC1 [Example 72, [(4-FLUOROPHENYL)CYCLOHEXYL]-N-(3-(SPIRO[INDENE-1,4′-PIPERIDINE]-10-YL)PROPYL)CARBOXAMIDE] | 6.88
O=C(NCCCN1CCC2(C=Cc3ccccc32)CC1)C1(c2ccc(Cl)cc2)CC1 [Example 73, [(4-CHLOROPHENYL)CYCLOPROPYL]-N-(3-(SPIRO[INDENE-1,4′-PIPERIDINE]-10-YL)PROPYL)CARBOXAMIDE] | 6.62
O=C(NCCCN1CCC2(C=Cc3ccccc32)CC1)C1(c2ccc(Cl)cc2)CCC1 [Example 74, [(4-CHLOROPHENYL)CYCLOBUTYL]-N-(3-(SPIRO[INDENE-1,4′-PIPERIDINE]-10-YL)PROPYL)CARBOXAMIDE] | 6.73
Cc1ccc(C2(C(=O)NCCCN3CCC4(CC3)OCc3ccccc34)CCCC2)cc1 [Example 75, [(4-METHYL)PHENYL)CYCLOPENTYL]-N-(3-(SPIRO[1,3-DIHYDROISOBENZOFURAN-1,4′-PIPERIDINE]-10-YL)PROPYL)CARBOXAMIDE] | 6.15
Cc1ccc(C(C(=O)NCCCN2CCC3(CC2)OCc2ccccc23)c2ccc(C)cc2)cc1 [Example 78, 2,2-BIS(4-METHYL)PHENYL)-N-(3-(SPIRO[1,3-DIHYDROISOBENZOFURAN-1,4′-PIPERIDINE]-10-YL)PROPYL)ACETAMIDE] | 7.71
CC(C)(C(=O)NCCCN1CCC2(CC1)OCc1ccccc12)c1ccc(Cl)cc1 [Example 81, 2-(4-CHLOROPHENYL)-2-METHYL-N-(3-(SPIRO[1,3-DIHYDROISOBENZOFURAN-1,4′-PIPERIDINE]-10-YL)PROPYL)PROPANAMIDE] | 6.73
CC(C(=O)NCCCN1CCC2(CC1)OCc1ccccc12)c1ccc(Cl)cc1 (stereo not drawn) [Example 83, 2-(4-CHLOROPHENYL)-N-(3-(SPIRO[1,3-DIHYDROISOBENZOFURAN-1,4′-PIPERIDINE]-10-YL)PROPYL)PROPANAMIDE] | 6.25
O=C(NCCCN1CCC2(CC1)OCc1ccccc12)C1(c2ccc(Cl)cc2)CCCC1 [Example 85, [(4-CHLOROPHENYL)CYCLOPENTYL]-N-(3-(SPIRO[1,3-DIHYDROISOBENZOFURAN-1,4′-PIPERIDINE]-10-YL)PROPYL)CARBOXAMIDE] | 6.74
O=C(NCCCN1CCC2(CC1)OCc1ccccc12)C1(c2ccc(Cl)cc2)CC1 [Example 89, [(4-CHLOROPHENYL)CYCLOPROPYL]-N-(3-(SPIRO[1,3-DIHYDROISOBENZOFURAN-1,4′-PIPERIDINE]-10-YL)PROPYL)CARBOXAMIDE] | 6.32
O=C(NCCCN1CCC2(CC1)OCc1ccccc12)C(c1ccc(Cl)cc1)c1ccc(Cl)cc1 [Example 90, 2,2-BIS(4-CHLOROPHENYL)-N-(3-(SPIRO[1,3-DIHYDROISOBENZOFURAN-1,4′-PIPERIDINE]-10-YL)PROPYL)ACETAMIDE] | 8.27
O=C(NCCCN1CCC2(CC1)Cc1ccccc1C2=O)C(c1ccc(Cl)cc1)c1ccc(Cl)cc1 [Example 91, 2,2-BIS(4-CHLOROPHENYL)-N-[3-(1-OXOSPIRO[INDANE-2,4′-PIPERIDINE]-10-YL)PROPYL]ACETAMIDE] | 6.42
O=C(NCCCN1CCC2(CC1)Cc1ccccc1C2=O)C(c1ccc(F)cc1)c1ccc(F)cc1 [Example 92, 2,2-BIS(4-FLUOROPHENYL)-N-[3-(1-OXOSPIRO[INDANE-2,4′-PIPERIDINE]-10-YL)PROPYL]ACETAMIDE] | 7.21
O=C1OC2(CCN(CCCNC(=O)C(c3ccccc3)c3ccccc3)CC2)c2ccccc21 [Example 93, N-[3-(1-OXOSPIRO[3-HYDROISOBENZOFURAN-3,4′-PIPERIDINE]-10-YL)PROPYL]-2,2-DIPHENYLACETAMIDE] | 6.11
O=C1OC2(CCN(CCCNC(=O)C(c3ccc(F)cc3)c3ccc(F)cc3)CC2)c2ccccc21 [Example 95, 2,2-BIS(4-FLUOROPHENYL)-N-[3-(1-OXOSPIRO[3-HYDROISOBENZOFURAN-3,4′-PIPERIDINE]-10-YL)PROPYL]ACETAMIDE] | 7.07
O=C(NCCCN1CCC2(CCCc3ccccc32)CC1)C(c1ccccc1)c1ccccc1 [Example 96, 2,2-DIPHENYL-N-(3-(SPIRO[1,2,3,4-TETRAHYDRONAPHTHALENE-1,4′-PIPERIDINE]-11-YL) PROPYL)ACETAMIDE] | 6.89
O=C(NCCCN1CCC2(CC1)C(=O)CCc1ccccc12)C(c1ccccc1)c1ccccc1 [Example 98, N-[3-(2-OXOSPIRO[1,3,4-TRIHYDRONAPHTHALENE-1,4′-PIPERIDINE]-11-YL)PROPYL]-2,2-DIPHENYLACETAMIDE] | 6.17
O=C(NCCCN1CCC2(CC1)OCc1ccc(Cl)cc12)C(c1ccccc1)c1ccccc1 [Example 100, N-[3-(5-CHLOROSPIRO[1,3-DIHYDROISOBENZOFURAN-3,4′-PIPERIDINE]-10-YL)PROPYL]-2,2-DIPHENYLACETAMIDE] | 8.59
O=C(NCCCN1CCC2(CC1)OCc1ccc(F)cc12)C(c1ccccc1)c1ccccc1 [Example 101, N-[3-(5-FLUOROSPIRO[1,3-DIHYDROISOBENZOFURAN-3,4′-PIPERIDINE]-10-YL)PROPYL]-2,2-DIPHENYLACETAMIDE] | 8.24
